The structures appear in SMILES notation.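 Protocol summary: plate cells (96-well), add compound at 5 concentrations, incubate 48 h, interpolate endpoints linearly. Abbreviation: GI50, concentration required for 50% inhibition of growth.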 Calls of active or inactive are those of the source. Cut-off read from the data, not from the text of the source: active = GI50 up to about 1.1 µM and inactive = higher.

Among the test systems are CCRF-CEM; UO-31; OVCAR-4; HCC 2998; SNB-19; COLO 205; RPMI-8226; UACC-62; SW-620; CAKI-1; SK-MEL-5; HT-29; SF-295; RXF 393; OVCAR-3; SN12C; M14; SR.
Experiment in all cases: NCI anticancer screen, dose series, 48 h

`C/C=C/CC(C)[C@@H](O)[C@H](NC)C(=O)O` (stereo partly specified): the GI50 with CCRF-CEM, in the experiment with UO-31, with OVCAR-4, in the experiment with HCC 2998, in the experiment on SNB-19 and in the experiment on COLO 205 was > 100 µM (inactive) throughout. Besides, the GI50 in the experiment with RPMI-8226, with UACC-62, in the experiment on SW-620, in the experiment on CAKI-1, in the experiment on SK-MEL-5 and in the experiment on HT-29 was > 100 µM (inactive) in each case. The GI50 in the experiment with SF-295, in the experiment with RXF 393, in the experiment with OVCAR-3, with SN12C and with M14 was > 100 µM (inactive) throughout.

`Cc1nc(N)nc(N)c1CCCc1ccccc1`: the GI50 in the experiment on CCRF-CEM is 6.25 µM (inactive); in the experiment on UO-31, 20.8 µM (inactive); in the experiment on OVCAR-4 it was 18.4 µM (inactive); with HCC 2998, 12.5 µM (inactive); with SNB-19, 11.2 µM (inactive); in the experiment on COLO 205, 22.8 µM (inactive). The GI50 in the experiment on RPMI-8226 is 33.3 µM (inactive); in the experiment on UACC-62, 5.55 µM (inactive); in the experiment on SW-620, 4.57 µM (inactive); in the experiment with CAKI-1 it was 9.25 µM (inactive); in the experiment on SK-MEL-5, 4.94 µM (inactive); with HT-29, 2.15 µM (inactive). Moreover, the GI50 is 5.18 µM (inactive) with SF-295; 18.6 µM (inactive) with OVCAR-3; 4.07 µM (inactive) in the experiment on SR; 3.65 µM (inactive) with SN12C; 4.78 µM (inactive) in the experiment on M14.

Take `Cc1ccc(NC(=O)CCC(=O)C(C#N)c2ccccc2)cc1C` (stereo unspecified): the GI50 in the experiment on CCRF-CEM, with UO-31, in the experiment on OVCAR-4, in the experiment on HCC 2998, with SNB-19 and in the experiment with COLO 205 was > 100 µM (inactive) in each case. For the same compound, the GI50 with RPMI-8226, in the experiment on UACC-62, in the experiment on SW-620, with CAKI-1, with SK-MEL-5 and with HT-29 was > 100 µM (inactive) in each case. Moreover, the GI50 with SF-295, in the experiment on OVCAR-3, in the experiment on SN12C and in the experiment on M14 was > 100 µM (inactive) in each case.

Regarding `C#CC1(O)CC(c2ccccc2)N(C)C(c2ccccc2)C1` (stereo unspecified), the GI50 is > 100 µM (inactive) in the experiment on CCRF-CEM; 67.1 µM (inactive) in the experiment on UO-31; > 100 µM (inactive) with OVCAR-4; > 100 µM (inactive) with HCC 2998; > 100 µM (inactive) in the experiment with SNB-19; > 100 µM (inactive) in the experiment on COLO 205. Further, the GI50 in the experiment with UACC-62, in the experiment with SW-620, with CAKI-1, in the experiment with SK-MEL-5, in the experiment on HT-29 and in the experiment with SF-295 was > 100 µM (inactive) in each case. For the same compound, the GI50 with RXF 393, with OVCAR-3, with SN12C and with M14 was > 100 µM (inactive) in each case.

With `COc1ccc(-c2nc(-c3cnccn3)n(C3OC(CO)C(O)C3O)n2)cc1` (stereo unspecified), the GI50 with CCRF-CEM, with UO-31, in the experiment on OVCAR-4, in the experiment on HCC 2998, in the experiment on SNB-19 and with UACC-62 was > 10 µM (inactive) each time. The GI50 with SW-620, with HT-29, with SF-295, in the experiment with OVCAR-3, in the experiment on SR and in the experiment with SN12C was > 10 µM (inactive) each time. The GI50 in the experiment on M14 is > 10 µM (inactive).

Consider `COc1cccc(NC(=O)/C(CS(=O)(=O)CCC(C(C)=O)C(C)=O)=N/NC(C)(C)C)c1`, for which the GI50 in the experiment with CCRF-CEM, in the experiment with UO-31, with OVCAR-4, in the experiment with HCC 2998, in the experiment with SNB-19 and with COLO 205 was > 100 µM (inactive) each time. Also, the GI50 with RPMI-8226, in the experiment with UACC-62, with SW-620, with CAKI-1, with SK-MEL-5 and with HT-29 was > 100 µM (inactive) throughout. Also, the GI50 in the experiment on RXF 393, in the experiment on OVCAR-3, with SN12C and in the experiment on M14 was > 100 µM (inactive) each time.

As to `COc1ccc(OC)c(/C=C(/C#N)c2ccccc2)c1`, the GI50 in the experiment on CCRF-CEM is 17.5 µM (inactive); in the experiment on OVCAR-4 it was 15.9 µM (inactive); in the experiment on HCC 2998, > 10 µM (inactive); in the experiment with SNB-19 it was 52 µM (inactive); with COLO 205, 20.5 µM (inactive); with RPMI-8226, 13.4 µM (inactive). The GI50 is 5.32 µM (inactive) with UACC-62; 6.46 µM (inactive) in the experiment with SW-620; 35.1 µM (inactive) in the experiment on CAKI-1; 13.2 µM (inactive) in the experiment on SK-MEL-5; 6.52 µM (inactive) in the experiment with HT-29; 39.4 µM (inactive) in the experiment with SF-295. The GI50 is 10.2 µM (inactive) with RXF 393, 28.2 µM (inactive) with OVCAR-3, 32.6 µM (inactive) in the experiment on SN12C and 33.3 µM (inactive) in the experiment with M14.

Turning to `O=C1NC(=O)C2C(=O)NC(=O)C1C2Cc1ccco1` (stereo unspecified), the GI50 with CCRF-CEM, in the experiment on UO-31, with OVCAR-4, with HCC 2998, in the experiment with SNB-19 and with COLO 205 was > 100 µM (inactive) each time. Also, the GI50 with RPMI-8226, in the experiment with UACC-62, in the experiment with SW-620, in the experiment on CAKI-1, in the experiment on SK-MEL-5 and in the experiment with HT-29 was > 100 µM (inactive) each time. The GI50 with SF-295, in the experiment with RXF 393, in the experiment with OVCAR-3, with SN12C and in the experiment on M14 was > 100 µM (inactive) in each case.

Consider `OC(CCNC12CC3CC(CC(C3)C1)C2)c1ccccc1` (stereo unspecified), for which the GI50 in the experiment on CCRF-CEM is 60.5 µM (inactive); with UO-31, 43.9 µM (inactive); in the experiment with OVCAR-4, > 100 µM (inactive); with HCC 2998, 68.7 µM (inactive); with SNB-19, > 100 µM (inactive); in the experiment with COLO 205, 51.8 µM (inactive). Also, the GI50 was > 100 µM (inactive) with UACC-62; > 100 µM (inactive) with SW-620; > 100 µM (inactive) in the experiment with CAKI-1; 43.7 µM (inactive) in the experiment on SK-MEL-5; 35.3 µM (inactive) in the experiment on HT-29; > 100 µM (inactive) with SF-295. For the same compound, the GI50 was > 100 µM (inactive) in the experiment on RXF 393, > 100 µM (inactive) in the experiment on OVCAR-3, > 100 µM (inactive) with SN12C and 40.4 µM (inactive) in the experiment on M14.

Regarding `O=C1CC2CCCCC2=C1O` (stereo unspecified), the GI50 in the experiment with CCRF-CEM, with UO-31, with OVCAR-4, in the experiment on HCC 2998, in the experiment on SNB-19 and in the experiment on COLO 205 was > 100 µM (inactive) in each case. Moreover, the GI50 with RPMI-8226, with UACC-62, in the experiment on SW-620, in the experiment with CAKI-1, in the experiment with SK-MEL-5 and with SF-295 was > 100 µM (inactive) in each case. Further, the GI50 in the experiment on RXF 393, in the experiment on OVCAR-3 and in the experiment with SN12C was > 100 µM (inactive) in each case.

For the compound `N=C(N)SCCc1cn2ccccc2n1`, the GI50 in the experiment with CCRF-CEM, in the experiment on UO-31, in the experiment on OVCAR-4, in the experiment with HCC 2998, with SNB-19 and with COLO 205 was > 100 µM (inactive) throughout. In addition, the GI50 in the experiment with RPMI-8226 was > 100 µM (inactive); in the experiment with SW-620 it was > 100 µM (inactive); in the experiment with CAKI-1, > 100 µM (inactive); in the experiment on SK-MEL-5, 6.92 µM (inactive); in the experiment with HT-29 it was > 100 µM (inactive); in the experiment with SF-295 it was > 100 µM (inactive). The GI50 in the experiment on OVCAR-3, in the experiment on SR, in the experiment on SN12C and in the experiment with M14 was > 100 µM (inactive) in each case.

As for `COC(=O)C1[C@H](c2ccc3c(c2)OCO3)OC(=O)[C@]1(C(=O)OC)C(=O)c1ccc(OC)c(OC)c1` (stereo partly specified), the GI50 in the experiment on CCRF-CEM is 43.3 µM (inactive); in the experiment with UO-31 it was 87.3 µM (inactive); with OVCAR-4, > 100 µM (inactive); in the experiment on HCC 2998, 34.7 µM (inactive); with COLO 205, 42.7 µM (inactive); with RPMI-8226, 46.2 µM (inactive). In addition, the GI50 in the experiment on UACC-62 is 59.7 µM (inactive); in the experiment on SW-620 it was 39.3 µM (inactive); with CAKI-1, > 100 µM (inactive); in the experiment with SK-MEL-5 it was 56.2 µM (inactive); in the experiment on HT-29, 28.1 µM (inactive); in the experiment on SF-295, > 100 µM (inactive). In addition, the GI50 with OVCAR-3 was 75.5 µM (inactive); in the experiment with SR it was 34.2 µM (inactive); in the experiment on SN12C, 48.9 µM (inactive); with M14, 70.1 µM (inactive).

In the case of `COc1cc(CNc2ccc(C(C)C)cc2)cc(OC)c1OC`, the GI50 is 19 µM (inactive) in the experiment with CCRF-CEM; 20.2 µM (inactive) in the experiment on UO-31; 25.3 µM (inactive) in the experiment with OVCAR-4; 29.6 µM (inactive) in the experiment with SNB-19; 14.4 µM (inactive) in the experiment on RPMI-8226; 16 µM (inactive) with UACC-62. Also, the GI50 in the experiment on SK-MEL-5 is 14.7 µM (inactive); in the experiment on HT-29, 16.9 µM (inactive); in the experiment on RXF 393 it was 0.693 µM (active); with SN12C, 17.4 µM (inactive).

(Values after ChEMBL document CHEMBL1201862, “PubChem BioAssay data set” (2004).)
